Results: ChEMBL document CHEMBL5338818, “Discovery of the First Potent, Selective, and In Vivo Efficacious Polo-like Kinase 4 Proteolysis Targeting Chimera Degrader for the Treatment of TRIM37-Amplified Breast Cancer” (J Med Chem, 2023)
Activity calls are given as the source filed them. The calls are words filed in the database; no cut-off is given here.

Columns and labels:
[1] = molecular target: T1, Protein cereblon/Serine/threonine-protein kinase PLK4 (Homo sapiens, UniProt O00444+Q96SW2); test: Protac activity at CRBN/PLK4 in human MCF7 cells at 1 to 10 nM by Western blot analysis; format: cell-based; conditions: dose 1-10 nM, time 6-72 hrs, TDE = time-dependent effect
[2] = molecular target: T1, Protein cereblon/Serine/threonine-protein kinase PLK4; test: Protac activity at CRBN/PLK4 in human MCF7 cells at 1 uM incubated for 48 hrs by Western blot analysis; format: cell-based
[3] = molecular target: T2, Serine/threonine-protein kinase PLK4 (Homo sapiens, UniProt O00444); test: Inhibition of PLK4 (unknown origin) incubated for 1 hr in presence of kinase tracer 236 by FRET assay
T2 sequence (O00444 whole entry): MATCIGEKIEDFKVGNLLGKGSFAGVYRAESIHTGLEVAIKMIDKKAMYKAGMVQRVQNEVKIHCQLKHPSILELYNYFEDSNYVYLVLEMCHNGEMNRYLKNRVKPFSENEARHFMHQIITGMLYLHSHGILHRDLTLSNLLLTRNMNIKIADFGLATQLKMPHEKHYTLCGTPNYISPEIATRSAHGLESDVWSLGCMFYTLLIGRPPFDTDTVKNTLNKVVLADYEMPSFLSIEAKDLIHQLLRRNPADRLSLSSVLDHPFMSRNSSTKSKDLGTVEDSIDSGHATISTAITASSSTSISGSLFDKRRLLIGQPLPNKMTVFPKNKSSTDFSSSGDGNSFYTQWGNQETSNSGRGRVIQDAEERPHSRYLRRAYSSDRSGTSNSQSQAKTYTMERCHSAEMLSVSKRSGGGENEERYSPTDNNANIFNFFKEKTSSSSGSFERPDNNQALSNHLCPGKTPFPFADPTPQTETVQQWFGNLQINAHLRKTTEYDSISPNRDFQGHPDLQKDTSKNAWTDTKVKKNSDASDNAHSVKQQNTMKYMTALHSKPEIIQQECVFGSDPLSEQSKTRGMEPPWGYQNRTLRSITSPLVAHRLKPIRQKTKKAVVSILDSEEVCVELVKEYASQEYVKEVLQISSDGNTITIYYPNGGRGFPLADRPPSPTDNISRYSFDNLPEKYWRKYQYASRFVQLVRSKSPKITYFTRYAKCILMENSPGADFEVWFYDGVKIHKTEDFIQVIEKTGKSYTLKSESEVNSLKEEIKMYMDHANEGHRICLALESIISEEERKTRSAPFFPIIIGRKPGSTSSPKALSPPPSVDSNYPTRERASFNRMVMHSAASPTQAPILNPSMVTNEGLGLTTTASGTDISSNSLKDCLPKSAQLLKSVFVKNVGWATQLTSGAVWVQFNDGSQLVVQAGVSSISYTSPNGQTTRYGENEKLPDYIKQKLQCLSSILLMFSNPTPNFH

[4] = molecular target: T1, Protein cereblon/Serine/threonine-protein kinase PLK4; test: Protac activity at CRBN/PLK4 in human MCF7 cells at 0.1 uM incubated for 48 hrs by Western blot analysis; format: cell-based
[5] = molecular target: T1, Protein cereblon/Serine/threonine-protein kinase PLK4; test: Protac activity at CRBN/PLK4 in human MCF7 cells at 10 uM incubated for 48 hrs by Western blot analysis; format: cell-based
MCF7 = test: Antiproliferative activity against human MCF7 cells incubated for 5 days by CCK-8 assay; conditions: MCF7, 120 h
[6] = molecular target: T1, Protein cereblon/Serine/threonine-protein kinase PLK4; test: Protac activity at CRBN/PLK4 in human MCF7 cells at 10 uM by Western blot analysis; format: cell-based

T1 sequence (Q96SW2 whole entry, looked up, one chain of several): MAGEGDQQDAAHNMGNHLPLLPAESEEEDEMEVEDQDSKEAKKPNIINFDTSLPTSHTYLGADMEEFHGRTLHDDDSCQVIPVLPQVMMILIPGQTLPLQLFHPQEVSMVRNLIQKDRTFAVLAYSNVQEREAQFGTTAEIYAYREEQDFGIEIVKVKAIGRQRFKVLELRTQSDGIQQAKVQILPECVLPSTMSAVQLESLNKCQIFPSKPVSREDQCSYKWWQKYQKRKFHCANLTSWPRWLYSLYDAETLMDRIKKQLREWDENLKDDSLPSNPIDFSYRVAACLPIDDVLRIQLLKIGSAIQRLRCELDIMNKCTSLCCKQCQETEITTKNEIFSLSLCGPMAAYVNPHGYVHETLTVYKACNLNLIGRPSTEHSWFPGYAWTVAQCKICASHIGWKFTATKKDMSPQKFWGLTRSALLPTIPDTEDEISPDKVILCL

Activity [1] | Activity [2] [%] | IC50 [3] [nM] | Activity [4] [%] | Activity [5] [%] | IC50 (MCF7) [nM] | Activity [6] | SMILES
Tde | 53.1 | 1.5 | 44.6 | 65.8 | 2150 | – | Cc1cc(Nc2nc(NCc3ccc(F)cc3F)nc3c2cnn3C2CCN(C(=O)CCCOc3ccc4c(c3)C(=O)N(C3CCC(=O)NC3=O)C4=O)CC2)n[nH]1 (configuration not stated)
– | – | – | – | – | – | inactive | Cc1cc(Nc2nc(NCc3ccc(F)cc3F)nc3c2cnn3C2CCN(C(=O)C3CCN(c4ccc5c(c4)C(=O)N(C4CCC(=O)N(C)C4=O)C5=O)CC3)CC2)n[nH]1 (configuration not stated)
